The format of data set [1] is in vitro ADME, human. Particulars: 37° C., 15 minutes to 2 hours, heparinized blood. How it is done:
The oligonucleotide MA-15 described in Example 1 was radioactively labeled with ^32 P at the 5'-end of the molecule using γ^32 P-adenosine triphosphate (γ ^32 P-ATP, Amersham) and T4 polynucleotide kinase (Bethesda Research Laboratories):
where the asterisk represents the radiolabel. Separately, a radiolabeled derivative was prepared in which ^32 P was introduced at the 3'most internucleotide link using α^32 P-deoxycytidine triphosphate (dCTP) and DNA polymerase I (Bethesda Research Laboratories):
The reaction catalyzed by DNA polymerase I is between 5'-GAGCACCATGGTTT and dCTP and requires the complementary DNA strand as a template. A 50 fold excess of unlabeled MA-15 was added after the reaction to insure that the labeled derivative is single stranded. These procedures are standard methods for radiolabeling DNA fragments, see for example, Maniatis, T., Fritsch, E. F., and Sambrook, J., Molecular Cloning: A Laboratory Manual, Cold Spring Harbor Laboratory, New York, pp. 114-115 and 122-126, 1982, which is incorporated herein by reference. […]
The modified oligonucleotide was labeled with ^32 P at the 5'-terminal OH group using γ^32 P-ATP and T4 polynucleotide kinase as described in Example 3. […] Aliquots were removed at various times and analyzed by polyacrylamide gel electrophoresis. […]

The subject of a further data set is β-globin mRNA. The data set can be described thus: In vitro translation in rabbit reticulocyte lysate, β-globin synthesis. The note with it: in words; MA-15 complementary to 12 of 15 residues of β-globin mRNA. Format: biochemical, mouse. The protocol:
For the purpose of these experiments two oligonucleotides were synthesized: 5'-GAGCACCATGGTTTC, MA-15; and 5'-[…],(SEQ ID NO:2) CODMB-25. Both were prepared on a Beckman automated DNA synthesizer using the phophoramidite method. MA-15 is complementary to a sequence within mouse α-globin mRNA spanning the initiation codon. CODMB-25 hybridizes to a sequence within the coding region of mouse β-globin mRNA. Mouse globin mRNA was isolated from reticulocytes obtained from mice rendered anemic by treatment with phenylhydrazine as described by Goosens and Kan (Methods in Enzymology (Antonini, E., Rossi-Bernadi, L., and Chiancone, E., eds.) 76, 805-817, 1981). In vitro translation reactions were carried out in the rabbit reticulocyte lysate system. The reticylocyte lysates used were purchased from ProMega Biotec, and contain RNaseH. Translation reactions were programmed with 1 ug of total mouse reticulocyte RNA. The reactions were allowed to proceed for 1 hour at 30° C. Each sample contained 45 uCi of [^35 S]methionine (Amersham) in a total volume of 25 ul. Protein synthesis was measured by incorporation of [^35 S]methionine into material precipitatable in 10% trichloracetic acid. In control reactions in the absence of oligonucleotide, synthesis of β globin accounts for 60% of the incorporated counts; α globin synthesis accounts for 40% of the radioactivity incorporated into protein. […]

For data set [2], the system named is mouse globin mRNA (MA-15: mouse α-globin mRNA; CODMB-25: mouse β-globin mRNA). Description: In vitro translation of globin mRNA in rabbit reticulocyte lysate (hybrid-arrested translation, role of RNaseH). Format: biochemical. The note with it: for inhibition of translation of the targeted mRNA: in words; for % Inhibition Of Globin Synthesis, +poly rA/oligo dT: with poly rA/oligo dT 500 ug/ml (RNaseH inhibitor); for % Inhibition Of Globin Synthesis, +poly rA/oligo dT / % Inhibition Of Globin Synthesis, -poly rA/oligo dT: CODMB-25 4 uM, 1 hour at 30° C.; for % Inhibition Of Globin Synthesis, -poly rA/oligo dT: without poly rA/oligo dT. How it is done:
For the purpose of these experiments two oligonucleotides were synthesized: 5'-GAGCACCATGGTTTC, MA-15; and 5'-[…],(SEQ ID NO:2) CODMB-25. Both were prepared on a Beckman automated DNA synthesizer using the phophoramidite method. MA-15 is complementary to a sequence within mouse α-globin mRNA spanning the initiation codon. CODMB-25 hybridizes to a sequence within the coding region of mouse β-globin mRNA. Mouse globin mRNA was isolated from reticulocytes obtained from mice rendered anemic by treatment with phenylhydrazine as described by Goosens and Kan (Methods in Enzymology (Antonini, E., Rossi-Bernadi, L., and Chiancone, E., eds.) 76, 805-817, 1981). In vitro translation reactions were carried out in the rabbit reticulocyte lysate system. The reticylocyte lysates used were purchased from ProMega Biotec, and contain RNaseH. Translation reactions were programmed with 1 ug of total mouse reticulocyte RNA. The reactions were allowed to proceed for 1 hour at 30° C. Each sample contained 45 uCi of [^35 S]methionine (Amersham) in a total volume of 25 ul. Protein synthesis was measured by incorporation of [^35 S]methionine into material precipitatable in 10% trichloracetic acid. In control reactions in the absence of oligonucleotide, synthesis of β globin accounts for 60% of the incorporated counts; α globin synthesis accounts for 40% of the radioactivity incorporated into protein. Reactions were carried out in both the presence and absence of poly rA/oligo dT (500 ug/ml).

A short description of data set [3]: Degradation of oligonucleotide in K562 cell extracts. Format: in vitro ADME, human. How it is done:
The purpose of these studies was to determine the pathways by which oligonucleotides are degraded by nucleases present within human cells. Radiolabeled derivatives of MA-15 were prepared as in Example 3. Degradation of the oligonucleotide was studied in extracts prepared from the human erythroleukemia cell line K562. The K562 cell line was first isolated by Lozzio, C. B., and Lozzio, B. B., Blood (1975) 45, 321-334, and has been studied extensively as a model for red cell differentiation. The cells were suspended in 10 mM tris buffer pH 7.4 with 5 mM MgCl2, 1 mM CaCl2, 100 mM NaCl, and 0.1% Triton® X-100 (polyethylene glycol 4-isooctylphenyl ether, and homogenized with a cold motor driven teflon pestle homogenizer for 30 seconds. Cell membranes and organelles were further disrupted by sonication by five 15 second bursts using a Biosonic sonifier set on full power. Remaining cell debris was removed from the extracts by centrifugation for 5 minutes at 12,000×g.
The radiolabeled oligonucleotide was incubated in K562 cell extracts under the same conditions as decribed in Example 3 and the degradation products analyzed by polyacrylamide gel electrophoresis. […] The half-life for cleavage of the 3'-terminal internucleotide link was 2 minutes. […] The half-life for cleavage of the 5'-terminal nucleotide unit from the chain by this mechanism was 20 minutes.
The derivative of MA-15 described in Example 5 in which the 3'-terminal internucleotide link was modified as a 2,2,2-trichloro-1,1-dimethylethyl phosphotriester was also used in this study. Extracts from K562 cells were prepared as in Example 4. The modified oligonucleotide was incubated in the cell extracts at 37° C. Aliquots were removed at various times, and the products of degradation were analyzed by polyacrylamide gel electrophoresis.

The test system of the next data set is mouse α-globin mRNA. The data set can be described thus: Cleavage of globin mRNA by E. coli RNaseH after hybridization with oligonucleotide (Northern blot). The class given is biochemical. Particulars: 1.1 nanomoles oligonucleotide in 22 microliters, 2 units E. coli RNaseH, 30 minutes at 37° C. The protocol:
Mouse globin mRNA was isolated from mice rendered anemic by treatment with phenylhydrazine as described in Example 1. Three oligonucleotides were compared in this study; MA-15, the derivative of MA-15 utilized in Examples 5 and 6 in which the 3'-terminal internucleotide link is modified as a trichlorodimethylethyl phosphotriester (MA-15-TCDM), and a derivative further modified at the 5'-terminal OH group with naphthylisocyanate (NPH-MA-15-TCDM). Mouse globin mRNA (2 micrograms) was added to 1.1 nanomoles of the oligonucleotide in a final volume of 22 microliters containing 10 mM tris-HCl buffer at pH 7.5, 5 mM MgCl2, 25 mM NaCl, and 1 mM dithiothreitol. The reactions were initiated by the addition of 2 units of E. coli RNaseH, and were allowed to proceed for 30 minutes at 37° C. The reactions were stopped by extraction of the samples with a 1:1 mixture of phenol and chloroform. The mRNA species remaining after digestion with RNaseH were isolated by precipitation with ethanol and analyzed on Northern blots.
The RNA samples were reacted with 1 M glyoxal in a 1:1 (volume/volume) mixture of 10 mM sodium phosphate buffer at pH 6.5 and dimethylsulfoxide for 1 hour at 50° C., and then electrophoresed on a 1.5% agarose gel. The RNAs were transferred from the gel to a Gene Screen Plus filter (DuPont-NEN) by capillary blotting according to the method described by the manufacturer. […]

The next data set deals with c-myc mRNA. The data set can be described thus: Inhibition of expression of c-myc in MOPC 315 cells (Northern blot). Format: cell-based, murine. Particulars: either 1 or 5 micromolar, 4 hours at 37° C. How it is done:
MOPC 315 cells were maintained in RPMI 1640 culture media containing 10% fetal calf serum at 37° C. with 7% CO2. Log phase MOPC 315 cells were harvested by centrifugation (250×g for 19 minutes at 23° C.) and resuspended at a density of 5×10^6 /ml in HB101 serum-free medium (DuPont). One ml aliquots of this cell suspension were incubated in the presence of oligonucleotide for 4 hours at 37° C. and 7% CO2. Additional one ml aliquots were incubated concommitantly without oligonucleotide. Cells from each group were then collected by centrifugation. Total cellular RNA was prepared as described by Chirgwin et al., Biochemistry 18, 5294-5299 (1979), and analyzed by Northern blots as described in Example 7. The filters were probed with an oligonucleotide complementary to c-myc mRNA labeled with ^32 P using polynucleotide kinase and γ^32 P-ATP as in previous examples.

Consider 3 substances from patent publication US6197944A, “DNA molecules stabilized by modifications of the 3'-terminal phosphodiester linkage” (Integrated DNA Technologies, Inc., priority 1994, dated 2001).

As to 5'-GAGCACCATGGTTTC [MA-15], in data set [1], the “pathway of degradation in human blood” value is on record as “sequential exonucleolytic cleavage of the strand from the 3'-toward the 5'-end of the chain”. For the same substance, in the data set with β-globin mRNA, the “inhibition of β-globin synthesis” value was “inhibits β-globin synthesis to some extent”. Moreover, in data set [2], the “inhibition of translation of the targeted mRNA” value is on record as “very effectively inhibited translation of the targeted mRNA”; the “% Inhibition Of Globin Synthesis, +poly rA/oligo dT” value is reported as 3%; the “% Inhibition Of Globin Synthesis, -poly rA/oligo dT” value is 51%. In addition, in data set [3] (K562 cell extracts), the “degradation by 5'- to 3'-exonucleolytic activity in K562 cell extracts” value is given as “A slower 5'- to 3'-exonucleolytic activity was also observed” and the “primary pathway of degradation in K562 cell extracts” value is recorded as 3' to 5' exonucleolytic activity. Besides, the “rate of degradation compared with that in blood” value in data set [3] (K562 cell extracts vs blood) is listed as “much faster than that in blood”. In addition, the “half-life for cleavage of the 3'-terminal internucleotide link” value in data set [3] (K562 cell extracts, 3' to 5' exonucleolytic activity, 37° C.) is 2 min. In data set [3] (K562 cell extracts, 5'- to 3'-exonucleolytic activity, 37° C.), the “half-life for cleavage of the 5'-terminal nucleotide unit from the chain” value amounted to 20 min. The “decrease in intensity of the α-globin mRNA band (RNaseH cleavage)” value in the data set with mouse α-globin mRNA is “marked decrease in the intensity of the band for α-globin mRNA”.

In the case of “5'-T CCCTTCATCCCGAAGTT C (antisense TCCCTTCATCCCGAAGTTC; TCDM group attached, position not given here) [anti-albumin oligonucleotide, oligonucleotide complementary to human albumin mRNA; ( ) again represents the TCDM group]”, the “effect on c-myc mRNA levels” value with c-myc mRNA is given as “no effect”.

In the case of 5'-TGTCCAAGTGATTCAGGCCATCGTT [CODMB-25], in data set [2], the “inhibition of translation of the targeted mRNA” value is recorded as “very effectively inhibited translation of the targeted mRNA”; the “% Inhibition Of Globin Synthesis, +poly rA/oligo dT” value came to 5%; the “% Inhibition Of Globin Synthesis, -poly rA/oligo dT” value came out at 61%.
